Measured values from the pKa sets of Baltruschat and Czodrowski (2020).

Conditions: acidic group

In order of falling pKa:
1. Cc1nccc2c1[nH]c1ccccc12  14.5
2. c1ccc(-c2cn[nH]c2)cc1  13.6
3. Cc1nn(-c2ccccc2)c(O)c1-c1ccccc1  11.9
4. CC(=N\[O-])/C(C)=N/O  11.9
5. OC(c1ccncc1)(c1ccncc1)c1cccnc1  11.9
6. COc1cc(C(N)=O)ccc1-c1nc2c(ncn2C)[nH]1  11.7
7. C/C(=N/O)c1ccccc1  11.5
8. O=C([O-])/C=C\c1ccccc1O  10.7
9. Fc1ccc(NC(=S)c2ccc(Cl)cc2)cc1  10.4
10. COc1ccc(O)c(CNC(CO)C(=O)[O-])c1 (stereo not given)  10.4
11. Cc1nc(Cc2ccccc2)c(O)o1  10.3
12. NC(=O)CN(CCN(CC(N)=O)Cc1ccccc1O)Cc1ccccc1O  10.2
13. Cc1c(O)cncc1C1CCCCC1  10
14. COc1ccc(S(N)(=O)=O)cc1  9.93
15. COC(=O)CC(=N/O)/C(C)=N/O  9.77
16. Cc1cnc2c(O)cccc2c1  9.75
17. O=C1NC(=O)[C@@H]2CCCC[C@H]12  9.72
18. C/C(=N/O)c1ccc([O-])cc1O  9.72
19. O=C([O-])c1cccc2ccc(O)cc12  9.6
20. c1ncc2cn[nH]c2n1  9.54
21. Oc1ccc2ncsc2c1  9.21
22. CCCCCC(=O)CC(C)=O  9.2
23. NC(=O)N/N=C/c1ncnc2nc[nH]c12  9.1
24. C[NH+](C)CCCCCCCCCNC(=O)/C=N/O  8.99
25. Cc1ccc(C[n+]2ccc(C(=O)Cc3ccccc3)cc2)cc1  8.91
26. O=C1C=C(S(=O)(=O)[O-])/C(=N\O)c2cn[nH]c21  8.6
27. Oc1cncc2cccnc12  8.33
28. O=C(OCc1ccccc1)c1ccc(O)cc1  8.31
29. C[NH+](C)CCNC(=O)/C=N/O  8.17
30. CCN(CC)C(=S)NC(=O)c1ccc(F)cc1  8.13
31. O=C1NC(=O)[C@H](CSSC[C@@H]2NC(=O)NC2=O)N1  8.1
32. C[N+](C)(C)CCS  7.98
33. Oc1n[nH]c(-c2ccccc2)c1Cc1ccccc1  7.7
34. Oc1cc(Cl)c(Cl)c(Cl)c1  7.7
35. COC(=O)CS  7.57
36. Brc1ccc2c(c1)-c1ccccc1C2[P+](c1ccccc1)(c1ccccc1)c1ccccc1 (stereo not given)  7.53
37. FC(F)(F)c1cc(C(F)(F)F)[nH]n1  7.51
38. Cc1cc(C)nc(NS(=O)(=O)c2ccc(N)cc2)n1  7.44
39. Oc1cc2ccccc2cc1C1=[NH+]CCN1  7.01
40. Nc1ncnc2c1ncn2CCOCP(=O)([O-])O  7
41. CCc1cc(Cl)c(OC)c(C(=O)NC[C@H]2CCC[NH+]2CC)c1O  6.91
42. CCC(=O)NOC(=O)/C=C/c1ccccc1  6.8
43. N#Cc1ccc(NS(=O)(=O)c2ccccc2)cc1  6.78
44. Cc1cc(O)n(C2CC[NH+](C)CC2)n1  6.63
45. CC(C)CN[N+](=O)[O-]  6.38
46. O=c1[nH]c(=S)c2[nH]cnc2[nH]1  6.2
47. C/C(N=O)=N\O  5.8
48. CC(=O)C(C)[N+](=O)[O-] (stereo not given)  5.15
49. FC(F)(F)c1nc2ncncc2[nH]1  5.12
50. Nc1ccc(S(=O)(=O)Nc2nncs2)cc1  4.77
51. CC(C)Oc1ccc(C(=O)O)cc1  4.57
52. [NH3+]CCCCCCCCCC(=O)O  4.57
53. C=C=C(C)C(C)(C)C(=O)O  4.55
54. O=C(O)C(CO)c1ccccc1 (stereo not given)  4.23
55. [NH3+]CCCC#CC#CCCC(=O)O  4.12
56. C[NH2+]CCCC(=O)O  4.03
57. C=C=CC(=O)O  3.96
58. CC(C)(C)OC(=O)NS(=O)(=O)c1ccc(S(C)(=O)=O)cc1  3.76
59. CSCC(=O)O  3.67
60. Cn1cnc2nc(N)[nH+]c(O)c21  3.57
61. Nc1nc[nH+]c(O)c1N  3.57
62. Cc1cc(C)c(C)c(C(=O)O)c1C  3.43
63. C=C(SC1CCCCC1)C(=O)O  3.4
64. O=C(O)CSc1cccc([N+](=O)[O-])c1  3.4
65. CCCCCP(=O)(O)CCCCC  3.23
66. C[n+]1cccc2c(S)cccc21  3.22
67. CSC(=S)NCC(=O)O  3.19
68. Cc1ccc(C(=O)O)c(O)c1  3.11
69. Cn1cnc2c(O)[nH+]c(N)nc21  3.07
70. O=C(O)c1ccccc1-c1nnn[nH]1  2.9
71. N#CC(C#N)c1ccc([N+](=O)[O-])cc1  2.35
72. O=P(O)(O)C([NH2+]Cc1cc[nH+]cc1)c1ccccc1O (stereo not given)  2.28
73. O=P(O)(O)C([NH2+]Cc1cccc[nH+]1)c1ccccc1O (stereo not given)  2.25
74. C=C(C)[C@H]1C[NH2+][C@H](C(=O)O)[C@H]1CC(=O)O  2.1
75. [NH3+]CCNC(=S)S  2
76. CC(=O)[n+]1ccc(C#N)cc1  1.98
77. C=C(C)[C@H]1C[NH2+][C@H](C(=O)O)[C@H]1CC(=O)OC  1.95
78. O=C(O)[C@H]1O[C@@H]1C(=O)O  1.92
79. O=C(O)c1ccc([N+](=O)[O-])cc1O  1.83
80. O=C(O)C[N+](=O)[O-]  1.63
81. O=C(O)c1cc[n+](O)cc1  -0.48

Same assay, conditions: basic group

In order of rising pKa:
1. Cc1cc(C)n(-c2cc(C)n(C)[nH+]2)n1  -2.9
2. CNc1ccc[nH+]c1  -2.17
3. COc1cnc2ccccc2n1  0.28
4. O=c1[nH]c(=S)c2[nH]cnc2[nH]1  0.9
5. FC(F)(F)c1nc2ncncc2[nH]1  1
6. Cc1ccc(-c2cnc(-c3ccc(C)cc3)o2)cc1  1.12
7. COc1ccc(-c2ncc(-c3ccc(C)cc3)o2)cc1  1.34
8. Nc1nc[nH+]c(O)c1N  1.34
9. c1ccc(-c2cccc[nH+]2)nc1  1.47
10. Nc1ccc2[nH+]cccc2c1  1.63
11. NC(=O)N/N=C/c1ncnc2nc[nH]c12  2.1
12. Nc1ccc(S(=O)(=O)Nc2nncs2)cc1  2.15
13. CC[NH+](CC)Cc1cn2nc(-c3ccccc3)cc(C)c2n1  2.2
14. Cc1cc(C)nc(NS(=O)(=O)c2ccc(N)cc2)n1  2.35
15. Nc1cccc2cccc([N+](=O)[O-])c12  2.79
16. CCCc1c(O)n[nH]c1C  2.8
17. c1ncc2cn[nH]c2n1  2.84
18. Cc1[nH]c2ccc(N)cc2[nH+]1  3.12
19. NS(=O)(=O)c1ccccc1C(=O)O  3.14
20. CCCCc1nc(N)c2ncsc2n1  3.49
21. C[NH2+]CC/C(N)=N/O  3.6
22. CC1NOCc2ccccc21 (stereo not given)  3.7
23. COc1cc(C(N)=O)ccc1-c1nc2c(ncn2C)[nH]1  3.8
24. Cn1ccc(N)n1  3.81
25. CNc1ncccn1  3.82
26. CCN(CC#N)CC#N  3.98
27. Nc1ncnc2c1ncn2CCOCP(=O)([O-])O  4.18
28. Brc1cc2cccnc2c2ncccc12  4.2
29. CSc1ccc(N)cc1  4.4
30. COc1ccc(CON)cc1  4.42
31. N=C(Sc1ccccc1)c1ccccc1  4.48
32. CC1(C)S[C@H]2[C@@H](NC(=O)Cc3ccc(N)cc3)C(=O)N2[C@@H]1C(=O)[O-]  4.6
33. Cc1cc(C)nc(N)n1  4.93
34. Cc1cnc2c(O)cccc2c1  4.93
35. Nc1ccc(-c2ccc(/[NH+]=C/c3ccc(O)cc3)cc2)cc1  5.05
36. Cc1cn2nc(-c3ccccc3)ccc2n1  5.09
37. Nc1ccc(Cc2ccc(N)cc2)cc1  5.1
38. C[C@@H]1N[C@H]1C  5.33
39. Nc1cccc2ncccc12  5.46
40. C#CCNN  5.46
41. Cc1c(O)cncc1C1CCCCC1  5.6
42. Nc1c(C(=O)[O-])ncn1[C@H]1O[C@@H](CO)[C@H](O)[C@@H]1O  5.9
43. O=C(CN1CCOCC1)c1ccccc1  5.97
44. CN(C)CC(CSC#N)SC#N (stereo not given)  6.1
45. O=C([O-])[C@@H]1CSCN1  6.14
46. Cn1cnc2cc(N)ccc21  6.29
47. O=C(CCN1CCOCC1)C(c1ccccc1)c1ccccc1  6.39
48. Clc1ccc(C(Cn2ccnc2)OCc2ccc(Sc3ccccc3)cc2)c(Cl)c1 (stereo not given)  6.54
49. NC(=O)CN(CCN(CC(N)=O)Cc1ccccc1O)Cc1ccccc1O  6.54
50. Cc1nccc2c1[nH]c1ccccc12  6.55
51. CN1CSC[C@H]1C(=O)[O-]  6.6
52. CC(=O)n1ccnc1Cc1ncc[nH]1  6.6
53. O=C([O-])/C=C\c1c[nH]cn1  6.7
54. CC(=O)C(CCN1CCOCC1)(c1ccccc1)c1ccccc1  6.83
55. CC[C@]12CCCN3CCc4c(n(c5ccccc45)CC1)[C@@H]32  6.9
56. CCCC(=N)OCC  7.08
57. CN(C)Cc1cc(C[NH+](C)C)cc(O)c1O  7.22
58. Cc1cc([S-])ncn1  7.3
59. Nc1nc2ccccc2c2ccccc12  7.31
60. CCCNC(C)C(=O)Nc1ccccc1C (stereo not given)  7.32
61. Cc1cccc(N)n1  7.4
62. SCCN(Cc1ccccc1)Cc1ccccc1  7.62
63. CC(C)[NH2+]CCN  7.7
64. CC[NH+](CC)CCCCCCCC(C)Nc1c2ccc(Cl)cc2nc2ccc(OC)cc12 (stereo not given)  8
65. CCCn1ccnc1C  8.2
66. CN1[C@@H]2C[C@@H]3C[C@H]1[C@@H](O)[C@H]2O3  8.2
67. COc1ccc(O)c(CNC(CO)C(=O)[O-])c1 (stereo not given)  8.3
68. O=C([O-])c1nc[nH]c1C(=O)[O-]  8.49
69. N[C@H]1CCCC[C@@H]1C(=O)Oc1ccc([N+](=O)[O-])cc1  8.57
70. COc1cccc(/N=C/N(C)C)c1  8.6
71. CC[n+]1ccc([O-])nc1[S-]  8.7
72. c1cc(N2CCOCC2)ccn1  8.79
73. CC(C)N/C=N/c1ccc(-c2cncn2C)cc1  8.83
74. CC1NCCCN1  9.09
75. CCC(O)CN(CC)CCO (stereo not given)  9.1
76. CNC(CO)CO  9.12
77. CCCc1c(C)[n-]n(C2CCN(C)CC2)c1=O  9.2
78. c1cc([C@@H]2CCCN2)nc([C@@H]2CCC[NH2+]2)c1  9.39
79. COC(=O)C1CN2CCC1CC2 (stereo not given)  9.4
80. Cn1cncc1C[C@H](NC(=O)CCN)C(=O)[O-]  9.53
81. NC1=N[C@@H](CC(=O)[O-])C(=O)N1CCCC(N)C(=O)[O-] (stereo not given in full)  9.55
82. CC1=CCN2CC[C@@H](O)[C@@H]12  9.6
83. CCC(C)[C@H](N)C(=O)[O-] (stereo not given in full)  9.62
84. ClCC1CN2CCC1CC2 (stereo not given)  10.2
85. CN(C)/N=C(\N)CC[Si](C)(C)C  10.2
86. CCN(CC)CCC[C@@H](C)[C@H]1CC[C@H]2[C@@H]3CC[C@@H]4C[C@H](O)CC[C@]4(C)[C@H]3C[C@H](O)[C@]12C  10.3
87. O=C([O-])CN1CCCCC1  10.3
88. NCCCCCO  10.5
89. CCCCCCCCCCCCCCCCCCCCCCN  10.6
90. CNC  11
91. CC1=CCCCN1C  11.4
92. O=[N+]([O-])c1cnc([O-])nc1[O-]  11.5
93. CCC(C)(C)N(C)C(C)(C)C  11.9
94. CC/N=C1\C=C(NCC)CC(C)(C)C1  12.1
